The source of these data is ChEMBL document CHEMBL4033761 (ACS Med Chem Lett, 2017).

Usually fraction unbound stands for the share of the substance not bound to proteins or other matrix. One may read the pKa as the pH at which an ionisable group is half protonated. Read a high pKa as a group that holds its proton tightly. One may read the inhibition as the change of the read-out against control, counted positive when it falls. One may read the logD as the decadic logarithm of the distribution of all forms, ionised or not, between an organic phase and buffer at a given pH. Read a low logD as a more hydrophilic compound. In general, microsomal CLint refers to the rate of metabolic loss divided by the concentration. A higher microsomal CLint goes with faster metabolism. Broadly, the solubility is the dissolved amount per volume that the medium holds. Higher therefore signals much dissolved substance. In general, Papp A→B refers to the apparent permeability from the apical to the basolateral side of a cell layer.

Series [1] in a line: Fraction unbound in human plasma.
Series [2] is described as follows: Dissociation constant, pKa of the compound by UV absorbance method. In kind it is physicochemical.
In another series the target is hERG (KCNH2) (Homo sapiens, UniProt Q12809). Kind of series: in vitro.
Chain of hERG (KCNH2) (Q12809 whole entry): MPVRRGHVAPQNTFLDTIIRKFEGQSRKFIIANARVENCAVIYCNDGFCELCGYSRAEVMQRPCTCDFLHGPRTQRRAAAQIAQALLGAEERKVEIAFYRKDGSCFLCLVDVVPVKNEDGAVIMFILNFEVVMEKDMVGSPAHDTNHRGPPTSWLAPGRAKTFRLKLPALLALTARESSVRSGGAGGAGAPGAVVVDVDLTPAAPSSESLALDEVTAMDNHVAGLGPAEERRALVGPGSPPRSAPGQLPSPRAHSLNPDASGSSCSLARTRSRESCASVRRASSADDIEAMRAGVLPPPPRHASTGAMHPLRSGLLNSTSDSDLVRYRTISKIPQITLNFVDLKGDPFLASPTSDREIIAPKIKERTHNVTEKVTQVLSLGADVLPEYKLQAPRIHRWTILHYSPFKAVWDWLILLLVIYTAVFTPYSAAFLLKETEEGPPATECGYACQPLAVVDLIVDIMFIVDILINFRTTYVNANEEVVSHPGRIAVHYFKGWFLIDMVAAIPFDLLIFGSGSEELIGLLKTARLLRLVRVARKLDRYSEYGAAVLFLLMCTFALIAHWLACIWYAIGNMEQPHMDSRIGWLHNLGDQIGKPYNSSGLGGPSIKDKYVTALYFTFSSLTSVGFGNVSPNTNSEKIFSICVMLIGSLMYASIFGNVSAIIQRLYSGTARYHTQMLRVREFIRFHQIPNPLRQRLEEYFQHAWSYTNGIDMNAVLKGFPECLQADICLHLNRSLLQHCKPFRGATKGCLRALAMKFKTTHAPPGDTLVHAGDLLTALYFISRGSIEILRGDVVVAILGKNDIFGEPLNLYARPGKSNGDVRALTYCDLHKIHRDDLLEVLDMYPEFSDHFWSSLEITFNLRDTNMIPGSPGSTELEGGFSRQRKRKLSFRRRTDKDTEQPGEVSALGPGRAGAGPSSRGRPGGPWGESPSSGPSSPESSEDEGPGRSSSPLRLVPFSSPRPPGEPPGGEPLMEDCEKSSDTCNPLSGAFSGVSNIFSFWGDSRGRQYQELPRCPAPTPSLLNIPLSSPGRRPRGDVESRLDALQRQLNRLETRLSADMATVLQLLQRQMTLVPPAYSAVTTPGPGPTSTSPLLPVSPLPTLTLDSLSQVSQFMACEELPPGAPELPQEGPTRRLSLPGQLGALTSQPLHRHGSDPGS
The nature of series [3]: Distribution coefficient, log D of compound at pH 7.4. Particulars: octanol/water.
A short description of series [4]: Intrinsic clearance in human liver microsomes.
Series [5] in a line: Solubility of compound in DMSO.
Series [6] is described as follows: Apparent permeability of the compound across apical side to basolateral side in human Caco2 cells. Particulars: Caco-2.
The nature of series [7]: Dissociation constant, pKa of the compound by potentiometric titretion method.

In brackets after ≈: the same amount, converted by molar mass.

Description for hERG (KCNH2): Inhibition of human ERG at 11 uM by single shot IonWork assay relative to control

In turn, `CCNC1=NS(=O)(=O)c2ccccc21` had a fraction unbound in series [1] of 0.56. For the same molecule, the pKa in series [2] turned out to be 11.7. For the same molecule, on hERG (KCNH2), the inhibition at 11 µM was determined as 18.4%. The logD in series [3] was determined as 0.7. Also, the microsomal CLint in series [4] (liver microsomes) was < 3 µL/min/mg. Moreover, the solubility in series [5] stood at 971 µM (≈ 204 µg/mL). Besides, the Papp A→B in series [6] is 29.3 ×10⁻⁶ cm/s.
Take `N=S1(=O)c2ccccc2C(=O)N1Cc1ccccc1` (stereo not drawn): the pKa in series [2] was 8.7. Also, the inhibition at 11 µM against hERG (KCNH2) is -7.4%. Also, the logD in series [3] came out at 1.8. Besides, the microsomal CLint in series [4] (liver microsomes) amounted to 19.2 µL/min/mg. Further, the solubility in series [5] was 946 µM (≈ 258 µg/mL). Also, the Papp A→B in series [6] came to 84.7 ×10⁻⁶ cm/s.
Turning to `C[C@H](N[S@]1(=O)=NC(=O)c2ccccc21)c1ccccc1`, the fraction unbound in series [1] came to 0.014. Also, the pKa in series [2] was 6.62. The molecule also came in with a logD in series [3] of 1.4. For the same molecule, the microsomal CLint in series [4] (liver microsomes) is < 3 µL/min/mg. The concentration in solution in series [5] (solubility) was 13 µM (≈ 3.72 µg/mL). Besides, in series [6], the apparent permeability from apical to basolateral (Papp A→B) is 63 ×10⁻⁶ cm/s.
`O=C1N=S(=O)(NCc2ccccc2)c2ccccc21` (stereo not drawn) gave a fraction unbound in series [1] of 0.12. Besides, the pKa in series [2] is 6.5. For the same molecule, on hERG (KCNH2), the inhibition at 11 µM was -1.9%. The molecule further gave a logD in series [3] of 0.8. Besides, in series [4] (liver microsomes), the microsomal CLint is < 3 µL/min/mg. This molecule displayed a solubility in series [5] of 869 µM (≈ 237 µg/mL). For the same molecule, the Papp A→B in series [6] was 70.7 ×10⁻⁶ cm/s.
In series [1], `NC1=NS(=O)(=O)c2ccccc21` came in with a fraction unbound of 0.48. This molecule yielded a pKa in series [2] of 11.4. In series [3], the logD is 0.2. In addition, the microsomal CLint in series [4] (liver microsomes) is < 3 µL/min/mg. Also, in series [5], the concentration in solution (solubility) was 798 µM (≈ 145 µg/mL). For the same molecule, the Papp A→B in series [6] turned out to be 7.39 ×10⁻⁶ cm/s.
`O=S1(=O)N=C(NCc2ccccc2)c2ccccc21` displayed a fraction unbound in series [1] of 0.2. For the same molecule, at hERG (KCNH2), the inhibition at 11 µM is 2.8%. The same molecule came in with a logD in series [3] of 1.9. Further, in series [4] (liver microsomes), the microsomal CLint is < 3 µL/min/mg. In series [5], the concentration in solution (solubility) was 89 µM (≈ 24.2 µg/mL).
In turn, `N=S1(=O)c2ccccc2C(=O)N1c1ccccc1` (stereo not drawn) displayed a pKa in series [2] of 8.3. Also, the inhibition at 11 µM against hERG (KCNH2) was -25.6%. Also, in series [3], the logD was 1.3. For the same molecule, in series [4] (liver microsomes), the microsomal CLint came out at 93.5 µL/min/mg. The same molecule yielded a solubility in series [5] of 578 µM (≈ 149 µg/mL).
In turn, `O=C1N=S(=O)(Nc2ccccc2)c2ccccc21` (stereo not drawn) came in with a fraction unbound in series [1] of 0.088. The pKa in series [2] was determined as 4.1. The inhibition at 11 µM against hERG (KCNH2) came out at 5.2%. Also, the logD in series [3] is -1.1. The microsomal CLint in series [4] (liver microsomes) was < 3 µL/min/mg. This molecule also came in with a solubility in series [5] of 958 µM (≈ 247 µg/mL). Besides, in series [6], the Papp A→B was found to be 6.57 ×10⁻⁶ cm/s.
Regarding `CCN1C(=O)c2ccccc2S1(=N)=O` (stereo not drawn), the fraction unbound in series [1] was determined as 0.83. The molecule also showed a pKa in series [2] of 8.9. At hERG (KCNH2), the inhibition at 11 µM is -4.7%. Also, the logD in series [3] stood at 0.7. Also, the microsomal CLint in series [4] (liver microsomes) is < 3 µL/min/mg. The same molecule showed a solubility in series [5] of 512 µM (≈ 108 µg/mL). Further, in series [6], the Papp A→B was 92 ×10⁻⁶ cm/s.
Turning to `C[C@H](NS1(=O)=NC(=O)c2ccccc21)c1ccccc1` (single isomer, unassigned), in series [1], the fraction unbound worked out at 0.089. The molecule also returned a pKa in series [2] of 6.55. Also, the logD in series [3] worked out at 0.8. Besides, in series [4] (liver microsomes), the microsomal CLint was < 3 µL/min/mg. Moreover, the concentration in solution in series [5] (solubility) came to 107 µM (≈ 30.6 µg/mL). In addition, the Papp A→B in series [6] was 47 ×10⁻⁶ cm/s.
`CCN=S1(=O)NC(=O)c2ccccc21` (stereo not drawn) showed a free fraction (fraction unbound) in series [1] of 0.41. Further, in series [2], the pKa stood at 6.9. At hERG (KCNH2), the inhibition at 11 µM is 1.3%. The logD in series [3] was determined as 0.1. Besides, the microsomal CLint in series [4] (liver microsomes) is < 3 µL/min/mg. Moreover, the concentration in solution in series [5] (solubility) was 947 µM (≈ 199 µg/mL). Further, the Papp A→B in series [6] stood at 26.8 ×10⁻⁶ cm/s.
As for `O=S1(=O)N=C(Nc2ccccc2)c2ccccc21`, the fraction unbound in series [1] amounted to 0.16. The inhibition at 11 µM against hERG (KCNH2) stood at 11.1%. The logD in series [3] came to 2. The microsomal CLint in series [4] (liver microsomes) amounted to 85.4 µL/min/mg. Moreover, in series [5], the solubility was 7 µM (≈ 1.81 µg/mL).
`NS1(=O)=NC(=O)c2ccccc21` (stereo not drawn) came in with a fraction unbound in series [1] of 0.4. Besides, the pKa in series [2] stood at 5.7. For the same molecule, in series [4] (liver microsomes), the microsomal CLint is < 3 µL/min/mg.
Molecule `O=C1NS(=O)(=O)c2ccccc21` [SACCHARIN] displayed an unbound share (fraction unbound) in series [1] of 0.37. In addition, the pKa in series [7] came to 3.1. For the same molecule, the logD in series [3] is < -0.1. Also, in series [4] (microsomes), the microsomal CLint is < 3 µL/min/mg. Also, the solubility in series [5] came to 838 µM (≈ 154 µg/mL). Also, the Papp A→B in series [6] was < 0.75 ×10⁻⁶ cm/s.
In the case of `O=C1c2ccccc2S(=O)(=O)N1Cc1ccccc1`, the logD in series [3] is -1.8. Moreover, the solubility in series [5] was < 0.01 µM.
Regarding `CCN1C(=O)c2ccccc2S1(=O)=O`, the inhibition at 11 µM against hERG (KCNH2) turned out to be 3.6%. Besides, the solubility in series [5] was < 13 µM. For the same molecule, the Papp A→B in series [6] turned out to be 125 ×10⁻⁶ cm/s.
